The values that follow come from ChEMBL document CHEMBL3992531, “Identification of new pyrrolo[2,3-d]pyrimidines as Src tyrosine kinase inhibitors in vitro active against Glioblastoma” (Eur J Med Chem, 2017).

Structures are written as SMILES. Calls of active or inactive are those of the source. The rule behind the calls is not given here.

Test [1] deals with Tyrosine-protein kinase ABL1 (Homo sapiens, UniProt P00519). The test can be described thus: Inhibition of Abl (unknown origin).
The target of test [2] is T1, Receptor-type tyrosine-protein kinase FLT3 (Homo sapiens, UniProt P36888).
T1 sequence (P36888 whole entry): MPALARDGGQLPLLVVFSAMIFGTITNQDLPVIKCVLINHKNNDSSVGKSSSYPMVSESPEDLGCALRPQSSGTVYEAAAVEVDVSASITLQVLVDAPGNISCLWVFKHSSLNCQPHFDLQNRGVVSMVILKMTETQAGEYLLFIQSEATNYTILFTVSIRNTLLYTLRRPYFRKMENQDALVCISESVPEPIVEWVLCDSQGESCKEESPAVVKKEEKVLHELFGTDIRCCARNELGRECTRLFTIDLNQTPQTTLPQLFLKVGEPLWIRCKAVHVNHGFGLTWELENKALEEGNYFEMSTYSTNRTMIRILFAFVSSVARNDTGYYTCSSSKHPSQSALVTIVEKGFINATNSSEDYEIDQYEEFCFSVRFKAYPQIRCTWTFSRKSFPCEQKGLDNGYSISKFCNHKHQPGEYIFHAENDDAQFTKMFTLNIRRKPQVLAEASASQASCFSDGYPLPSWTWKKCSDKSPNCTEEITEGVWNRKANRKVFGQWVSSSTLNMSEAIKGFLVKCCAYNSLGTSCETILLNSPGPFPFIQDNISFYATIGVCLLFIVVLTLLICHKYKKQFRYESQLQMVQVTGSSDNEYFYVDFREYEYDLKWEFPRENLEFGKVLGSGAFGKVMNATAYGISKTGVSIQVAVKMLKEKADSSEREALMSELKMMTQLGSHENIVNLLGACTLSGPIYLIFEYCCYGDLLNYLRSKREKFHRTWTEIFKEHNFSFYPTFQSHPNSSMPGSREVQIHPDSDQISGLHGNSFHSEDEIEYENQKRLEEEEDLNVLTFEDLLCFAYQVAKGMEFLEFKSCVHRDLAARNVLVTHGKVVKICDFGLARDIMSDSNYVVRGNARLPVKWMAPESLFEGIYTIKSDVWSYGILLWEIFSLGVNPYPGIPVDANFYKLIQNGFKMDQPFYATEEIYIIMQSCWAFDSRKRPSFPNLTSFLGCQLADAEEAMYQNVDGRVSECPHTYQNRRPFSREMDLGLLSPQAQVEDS
The test can be described thus: Inhibition of Flt3 (unknown origin) using KVEKIGEGTYGVVYK as substrate after 10 mins in presence of [gamma-33P]ATP by scintillation counting method.

Test [3] concerns Epidermal growth factor receptor (Homo sapiens), P00533 [L861Q]. The test is described as follows: Inhibition of human recombinant N-terminal GST-tagged EGFR (696 residue-end) L861Q mutant expressed in baculovirus infected Sf21 cells using angiotensin-2 as substrate after 10 mins in presence of [gamma-33P]ATP by scintillation counting method.
The target of test [4] is Mast/stem cell growth factor receptor Kit (Homo sapiens, UniProt P10721). The test can be described thus: Inhibition of human recombinant GST-His6-tagged Kit C-terminal fragment (544 to 976 residues) using GGMEDIYFEFMGGKKK as substrate after 10 mins in presence of [gamma-33P]ATP by scintillation counting method.
Test [5] has as its target Tyrosine-protein kinase Fyn (Homo sapiens, UniProt P06241). The test is described as follows: Inhibition of human recombinant full length N-terminal His6-tagged Fyn expressed in baculovirus infected Sf21 cells using KVEKIGEGTYGVVYK as substrate after 10 mins in presence of [gamma-33P]ATP by scintillation counting method.
Test [6] has as its system Tyrosine-protein kinase ABL1 (Homo sapiens), P00519 [T315I]. The test is described as follows: Inhibition of Abl T315I mutant (unknown origin).
Test [7] deals with Proto-oncogene tyrosine-protein kinase Src (Homo sapiens, UniProt P12931). The test is described as follows: Inhibition of human recombinant full length N-terminal His6-tagged Src expressed in Sf21 cells using KVEKIGEGTYGVVYK as substrate after 10 mins in presence of [gamma-33P]ATP by scintillation counting method.
Another test has as its system U-87 MG. The test is described as follows: Cytotoxicity against human U87MG cells assessed as decrease in cell viability after 72 hrs by coulter counter analysis. The class given is functional, cell-based, U-87MG ATCC.

Chain of Mast/stem cell growth factor receptor Kit (P10721 whole entry, the tested form may be a part): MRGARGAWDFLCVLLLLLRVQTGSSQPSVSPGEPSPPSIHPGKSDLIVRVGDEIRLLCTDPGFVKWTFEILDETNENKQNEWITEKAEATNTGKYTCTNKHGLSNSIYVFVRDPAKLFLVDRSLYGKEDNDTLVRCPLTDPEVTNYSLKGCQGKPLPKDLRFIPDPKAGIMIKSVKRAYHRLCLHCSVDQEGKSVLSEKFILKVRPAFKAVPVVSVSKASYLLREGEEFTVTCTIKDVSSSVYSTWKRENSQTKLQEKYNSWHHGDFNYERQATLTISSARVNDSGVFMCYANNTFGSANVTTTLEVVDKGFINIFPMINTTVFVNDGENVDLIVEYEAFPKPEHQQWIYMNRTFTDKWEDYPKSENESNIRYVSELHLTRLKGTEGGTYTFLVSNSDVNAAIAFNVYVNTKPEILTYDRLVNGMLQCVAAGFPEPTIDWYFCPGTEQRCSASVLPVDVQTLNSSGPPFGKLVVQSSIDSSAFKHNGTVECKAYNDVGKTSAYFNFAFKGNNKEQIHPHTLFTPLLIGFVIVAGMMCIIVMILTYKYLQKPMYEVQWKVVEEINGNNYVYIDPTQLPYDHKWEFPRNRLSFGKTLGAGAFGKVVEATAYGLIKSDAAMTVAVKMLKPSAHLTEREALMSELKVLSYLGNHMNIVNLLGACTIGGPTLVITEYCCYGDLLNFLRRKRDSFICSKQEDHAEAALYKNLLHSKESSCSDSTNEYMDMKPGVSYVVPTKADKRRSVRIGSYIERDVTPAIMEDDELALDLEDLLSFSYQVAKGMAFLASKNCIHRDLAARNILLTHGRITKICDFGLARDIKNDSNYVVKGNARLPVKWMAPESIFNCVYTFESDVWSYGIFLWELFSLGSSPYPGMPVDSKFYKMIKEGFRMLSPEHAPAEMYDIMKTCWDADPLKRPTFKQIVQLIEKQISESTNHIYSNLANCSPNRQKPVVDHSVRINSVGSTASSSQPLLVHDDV
Chain of Proto-oncogene tyrosine-protein kinase Src (P12931 2-536 limits assumed): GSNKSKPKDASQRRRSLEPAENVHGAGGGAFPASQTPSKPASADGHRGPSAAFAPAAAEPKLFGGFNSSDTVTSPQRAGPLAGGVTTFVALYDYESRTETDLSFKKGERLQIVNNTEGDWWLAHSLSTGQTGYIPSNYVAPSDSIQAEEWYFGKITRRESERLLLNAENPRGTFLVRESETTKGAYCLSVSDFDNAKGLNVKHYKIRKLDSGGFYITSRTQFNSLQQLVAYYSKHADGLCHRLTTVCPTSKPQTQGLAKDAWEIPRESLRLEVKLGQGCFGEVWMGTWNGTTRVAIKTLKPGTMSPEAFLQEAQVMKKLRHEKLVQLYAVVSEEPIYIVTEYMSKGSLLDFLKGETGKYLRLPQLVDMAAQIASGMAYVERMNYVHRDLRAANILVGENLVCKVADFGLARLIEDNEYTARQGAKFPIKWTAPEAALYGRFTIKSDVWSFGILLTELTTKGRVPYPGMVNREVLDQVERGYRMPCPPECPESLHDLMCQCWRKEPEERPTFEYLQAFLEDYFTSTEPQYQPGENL
Chain of Tyrosine-protein kinase Fyn (P06241 whole entry): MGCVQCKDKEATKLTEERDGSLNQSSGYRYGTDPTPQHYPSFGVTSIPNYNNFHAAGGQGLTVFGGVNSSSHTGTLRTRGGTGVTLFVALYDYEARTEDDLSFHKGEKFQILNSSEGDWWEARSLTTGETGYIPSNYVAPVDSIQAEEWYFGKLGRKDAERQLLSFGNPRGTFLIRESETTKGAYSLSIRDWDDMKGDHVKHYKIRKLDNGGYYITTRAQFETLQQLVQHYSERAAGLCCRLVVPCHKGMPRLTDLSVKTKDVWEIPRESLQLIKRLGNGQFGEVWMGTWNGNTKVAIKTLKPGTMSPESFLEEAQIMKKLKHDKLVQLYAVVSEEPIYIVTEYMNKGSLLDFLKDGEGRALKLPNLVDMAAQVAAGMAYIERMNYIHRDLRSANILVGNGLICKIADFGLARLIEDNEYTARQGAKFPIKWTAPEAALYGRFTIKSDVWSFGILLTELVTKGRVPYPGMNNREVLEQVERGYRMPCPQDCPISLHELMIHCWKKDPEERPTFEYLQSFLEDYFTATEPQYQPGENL
Chain of Epidermal growth factor receptor (Homo sapiens), P00533 [L861Q] (P00533 whole entry L861Q, the tested form may be a part): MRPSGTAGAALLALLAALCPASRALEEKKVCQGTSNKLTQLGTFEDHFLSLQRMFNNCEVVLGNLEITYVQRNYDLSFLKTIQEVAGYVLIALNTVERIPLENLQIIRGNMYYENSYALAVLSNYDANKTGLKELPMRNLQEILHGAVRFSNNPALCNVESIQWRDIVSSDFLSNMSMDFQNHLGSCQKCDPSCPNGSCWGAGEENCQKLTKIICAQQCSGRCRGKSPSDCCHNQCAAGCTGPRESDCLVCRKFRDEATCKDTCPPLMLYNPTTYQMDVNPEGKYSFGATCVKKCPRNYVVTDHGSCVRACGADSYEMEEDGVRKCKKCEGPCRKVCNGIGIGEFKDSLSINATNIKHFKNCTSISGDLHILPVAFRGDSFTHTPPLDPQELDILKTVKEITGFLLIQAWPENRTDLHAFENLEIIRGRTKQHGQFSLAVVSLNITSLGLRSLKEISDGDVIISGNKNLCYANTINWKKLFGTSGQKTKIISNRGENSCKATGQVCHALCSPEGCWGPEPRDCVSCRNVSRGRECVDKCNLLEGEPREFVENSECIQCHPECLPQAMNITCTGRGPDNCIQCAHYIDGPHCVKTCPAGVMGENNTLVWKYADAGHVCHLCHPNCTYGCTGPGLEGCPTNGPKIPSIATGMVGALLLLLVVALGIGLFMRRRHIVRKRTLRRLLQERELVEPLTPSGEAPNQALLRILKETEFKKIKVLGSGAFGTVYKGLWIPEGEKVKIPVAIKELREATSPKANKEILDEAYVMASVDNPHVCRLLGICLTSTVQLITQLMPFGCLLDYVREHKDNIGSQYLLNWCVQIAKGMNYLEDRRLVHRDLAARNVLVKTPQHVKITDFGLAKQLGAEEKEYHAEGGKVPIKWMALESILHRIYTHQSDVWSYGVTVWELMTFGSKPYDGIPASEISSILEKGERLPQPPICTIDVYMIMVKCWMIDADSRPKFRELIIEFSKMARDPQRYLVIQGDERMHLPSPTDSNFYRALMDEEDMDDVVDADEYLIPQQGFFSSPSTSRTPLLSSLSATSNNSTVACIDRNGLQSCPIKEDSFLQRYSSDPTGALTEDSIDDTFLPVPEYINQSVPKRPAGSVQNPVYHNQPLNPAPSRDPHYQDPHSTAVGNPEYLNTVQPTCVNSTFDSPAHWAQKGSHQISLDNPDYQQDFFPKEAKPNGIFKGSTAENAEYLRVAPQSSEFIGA

As usually defined, the IC50 is the concentration at which inhibition is half-maximal. What is called Ki is the dissociation constant of the complex between target and ligand, obtained from inhibition or displacement. With `CSc1nc(NCCc2ccc(Cl)cc2)c2ccn(Cc3ccc(F)cc3)c2n1`, the IC50 entry was “Not Active” in test [1]; 76 µM in test [2] (read-out: IC50); “Not Active” in test [4]; 70.4 µM in test [5] (read-out: IC50); 46.1 µM in the test with U-87 MG. Also, the inhibition result in test [3] and in test [6] was “inactive” each time. For the same compound, the Ki in test [7] is 5 µM.
As to `CCCCNc1nc(SC)nc2c1ccn2Cc1ccc(F)cc1`, the IC50 entry is “Not Active” in test [1]; “Not Active” in test [2]; “Not Active” in test [4]; “Not Active” in test [5]; 20.7 µM in the test with U-87 MG. The inhibition entry in test [3] and in test [6] was “inactive” each time. Further, in test [7], the Ki is 3 µM.
Take `CSc1nc(Nc2cccc(Cl)c2)c2ccn(CC(Cl)c3ccccc3)c2n1` (stereo not given): the 50% inhibitory concentration (IC50) result was “Not Active” in test [1]; 55 µM in test [2] (read-out: IC50); “Not Active” in test [4]; 58.2 µM in test [5] (read-out: IC50); 143 µM with U-87 MG. For the same compound, the inhibition result in test [3] and in test [6] was “inactive” each time. Also, the Ki in test [7] was 0.7 µM.
As to `CSc1nc(NCCc2ccccc2)c2ccn(Cc3ccc(F)cc3)c2n1`, the IC50 result was “Not Active” in test [1]; “Not Active” in test [2]; “Not Active” in test [4]; 30.8 µM in test [5] (read-out: IC50); 13.3 µM with U-87 MG. The inhibition result in test [3] and in test [6] was “inactive” throughout. Moreover, the Ki in test [7] was 0.8 µM.
On to `CSc1nc(Nc2ccccc2)c2ccn(CC(Cl)c3ccccc3)c2n1` (stereo not given), for which the IC50 result was “Not Active” in test [1]; 72 µM in test [2] (read-out: IC50); “Not Active” in test [4]; 62 µM in test [5] (read-out: IC50); 27.4 µM in the test on U-87 MG. The inhibition entry in test [3] and in test [6] was “inactive” each time. Also, in test [7], the Ki was determined as 1.5 µM.
On to `CSc1nc(N2CCCC2)c2ccn(Cc3ccc(F)cc3)c2n1`, for which the IC50 entry is “Not Active” in test [1]; 64 µM in test [2] (read-out: IC50); “Not Active” in test [4]; 76 µM in test [5] (read-out: IC50); 51.8 µM in the test with U-87 MG. For the same compound, the inhibition entry in test [3] and in test [6] was “inactive” throughout. Further, in test [7], the Ki came to 2 µM.
For the compound `CSc1nc(N2CCOCC2)c2ccn(Cc3ccc(F)cc3)c2n1`, the IC50 result was “Not Active” in test [1]; 61 µM in test [2] (read-out: IC50); “Not Active” in test [4]; “Not Active” in test [5]; 20.3 µM with U-87 MG. Also, the inhibition entry in test [3] and in test [6] was “inactive” each time. Besides, the Ki in test [7] amounted to 4.7 µM.
For the compound `CSc1nc(N2CCCCC2)c2ccn(Cc3ccc(F)cc3)c2n1`, the IC50 entry in test [1] is “Not Active”; in test [2] (read-out: IC50), 61 µM; in test [4] it was “Not Active”; in test [5] (read-out: IC50), 57.1 µM; in the test with U-87 MG, 50.7 µM. The inhibition entry in test [3] and in test [6] was “inactive” each time. The inhibitory constant (Ki) in test [7] stood at 2.5 µM.
Turning to `CSc1nc(NCc2ccccc2)c2ccn(CC(Cl)c3ccccc3)c2n1` (stereo not given), the IC50 entry in test [1] was “Not Active”; in test [2] (read-out: IC50) it was 68 µM; in test [4], “Not Active”; in test [5] (read-out: IC50), 88.6 µM; in the test on U-87 MG it was 50.7 µM. The inhibition result in test [3] and in test [6] was “inactive” in each case. The Ki in test [7] stood at 6 µM.
With `CSc1nc(NCc2ccccc2)c2ccn(Cc3ccc(F)cc3)c2n1`, the IC50 in test [1] (read-out: IC50) was 70 µM; in test [2] (read-out: IC50), 60 µM; in test [4], “Not Active”; in test [5] (read-out: IC50), 43.2 µM; in the test on U-87 MG, 7.1 µM. Moreover, the inhibition entry in test [3] and in test [6] was “inactive” throughout. In addition, the Ki in test [7] worked out at 0.5 µM.
